Source: ChEMBL document CHEMBL4024727, “Synthesis and antimycobacterial screening of new thiazolyl-oxazole derivatives” (Eur J Med Chem, 2017)
pIC50: −log10 of the molar value. ≈ marks a conversion by molar mass, not a printed value.

Legend:
Bacillus subtilis [1] = experiment: Growth inhibition of Bacillus subtilis NCIM 2162 at 10 ug/ml measured after 12 hrs relative to control; assay type: functional; conditions: NCIM 2162, 12 h, read-out: GI
[2] = Selectivity index, ratio of GI50 for human HeLa cells to MIC for Mycobacterium tuberculosis H37Ra ATCC 25177 dormant stage; assay type: toxicity, cell-based; conditions: read-out: Selectivity Index
Pseudomonas fluorescens [3] = experiment: Growth inhibition of Pseudomonas fluorescens NCIM 2059 at 30 ug/ml measured after 8 hrs relative to control; assay type: functional; conditions: NCIM 2059, 8 h, read-out: GI
[4] = system: Mycobacterium tuberculosis; experiment: Growth inhibition of Mycobacterium bovis BCG ATCC 35743 at 30 ug/ml by nitrate reductase based two-fold dilution assay relative to control; assay type: functional; conditions: BCG str. ATCC 35743, read-out: GI
Staphylococcus aureus [5] = experiment: Growth inhibition of Staphylococcus aureus NCIM 2602 at 1 ug/ml measured after 12 hrs relative to control; assay type: functional; conditions: NCIM 2602, 12 h, read-out: GI
Escherichia coli [6] = experiment: Antibacterial activity against Escherichia coli NCIM 2576 measured after 8 hrs; assay type: functional; conditions: NCIM 2576, 8 h
Staphylococcus aureus [7] = experiment: Antibacterial activity against Staphylococcus aureus NCIM 2602 measured after 12 hrs; assay type: functional; conditions: NCIM 2602, 12 h
[8] = (§1) Growth inhibition of human PANC1 cells by MTT assay; assay type: cell-based, PANC-1; conditions: PANC-1 cells
PANC-1 = experiment: as §1; assay type: cell-based; conditions: panc-1
Escherichia coli [9] = experiment: Growth inhibition of Escherichia coli NCIM 2576 at 1 ug/ml measured after 8 hrs relative to control; assay type: functional; conditions: NCIM 2576, 8 h, read-out: GI
Escherichia coli [10] = experiment: Growth inhibition of Escherichia coli NCIM 2576 at 30 ug/ml measured after 8 hrs relative to control; assay type: functional; conditions: NCIM 2576, 8 h, read-out: GI
Bacillus subtilis [11] = experiment: Growth inhibition of Bacillus subtilis NCIM 2162 at 30 ug/ml measured after 12 hrs relative to control; assay type: functional; conditions: NCIM 2162, 12 h, read-out: GI
Bacillus subtilis [12] = experiment: Growth inhibition of Bacillus subtilis NCIM 2162 at 1 ug/ml measured after 12 hrs relative to control; assay type: functional; conditions: NCIM 2162, 12 h, read-out: GI
[13] = Selectivity index, ratio of GI50 for human A549 cells to MIC for Mycobacterium tuberculosis H37Ra ATCC 25177 dormant stage; assay type: toxicity; conditions: read-out: Selectivity Index
[14] = system: Mycobacterium tuberculosis; experiment: Antitubercular activity against Mycobacterium bovis BCG ATCC 35743 dormant stage by nitrate reductase based two-fold dilution assay; assay type: functional; conditions: BCG str. ATCC 35743
Pseudomonas fluorescens [15] = experiment: Growth inhibition of Pseudomonas fluorescens NCIM 2059 at 1 ug/ml measured after 8 hrs relative to control; assay type: functional; conditions: NCIM 2059, 8 h, read-out: GI
[16] = Selectivity index, ratio of GI50 for human PANC1 cells to MIC for Mycobacterium bovis BCG ATCC 35743 dormant stage; assay type: toxicity; conditions: PANC-1 cells, read-out: Selectivity Index
[17] = Selectivity index, ratio of GI50 for human HeLa cells to MIC for Mycobacterium bovis BCG ATCC 35743 dormant stage; assay type: toxicity, cell-based; conditions: read-out: Selectivity Index
Staphylococcus aureus [18] = experiment: Growth inhibition of Staphylococcus aureus NCIM 2602 at 10 ug/ml measured after 12 hrs relative to control; assay type: functional; conditions: NCIM 2602, 12 h, read-out: GI
[19] = system: Mycobacterium tuberculosis; experiment: Growth inhibition of Mycobacterium tuberculosis H37Ra ATCC 25177 at 10 ug/ml by XTT dye based two-fold dilution method relative to control; assay type: functional; conditions: read-out: GI
[20] = Selectivity index, ratio of GI50 for human PANC1 cells to MIC for Mycobacterium tuberculosis H37Ra ATCC 25177 dormant stage; assay type: toxicity; conditions: PANC-1 cells, read-out: Selectivity Index
Pseudomonas fluorescens [21] = experiment: Antibacterial activity against Pseudomonas fluorescens NCIM 2059 measured after 8 hrs; assay type: functional; conditions: NCIM 2059, 8 h
Bacillus subtilis [22] = experiment: Antibacterial activity against Bacillus subtilis NCIM 2162 measured after 12 hrs; assay type: functional; conditions: NCIM 2162, 12 h
[23] = (§2) Growth inhibition of human HeLa cells by MTT assay; assay type: cell-based; conditions: HeLa cells
HeLa = experiment: as §2; assay type: cell-based; conditions: hela
Staphylococcus aureus [24] = experiment: Growth inhibition of Staphylococcus aureus NCIM 2602 at 30 ug/ml measured after 12 hrs relative to control; assay type: functional; conditions: NCIM 2602, 12 h, read-out: GI
[25] = system: Mycobacterium tuberculosis; experiment: Growth inhibition of Mycobacterium bovis BCG ATCC 35743 at 10 ug/ml by nitrate reductase based two-fold dilution assay relative to control; assay type: functional; conditions: BCG str. ATCC 35743, read-out: GI
[26] = (§3) Growth inhibition of human A549 cells by MTT assay; assay type: cell-based; conditions: A549 cells
A549 = experiment: as §3; assay type: cell-based; conditions: a549
[27] = system: Mycobacterium tuberculosis; experiment: Growth inhibition of Mycobacterium tuberculosis H37Ra ATCC 25177 at 3 ug/ml by XTT dye based two-fold dilution method relative to control; assay type: functional; conditions: read-out: GI
[28] = system: Mycobacterium tuberculosis; experiment: Growth inhibition of Mycobacterium bovis BCG ATCC 35743 at 1 ug/ml by nitrate reductase based two-fold dilution assay relative to control; assay type: functional; conditions: BCG str. ATCC 35743, read-out: GI
Escherichia coli [29] = experiment: Growth inhibition of Escherichia coli NCIM 2576 at 10 ug/ml measured after 8 hrs relative to control; assay type: functional; conditions: NCIM 2576, 8 h, read-out: GI
Pseudomonas fluorescens [30] = experiment: Growth inhibition of Pseudomonas fluorescens NCIM 2059 at 10 ug/ml measured after 8 hrs relative to control; assay type: functional; conditions: NCIM 2059, 8 h, read-out: GI
[31] = Selectivity index, ratio of GI50 for human A549 cells to MIC for Mycobacterium bovis BCG ATCC 35743 dormant stage; assay type: toxicity; conditions: read-out: Selectivity Index
[32] = system: Mycobacterium tuberculosis; experiment: Growth inhibition of Mycobacterium tuberculosis H37Ra ATCC 25177 at 30 ug/ml by XTT dye based two-fold dilution method relative to control; assay type: functional; conditions: read-out: GI
[33] = system: Mycobacterium tuberculosis; experiment: Antitubercular activity against Mycobacterium tuberculosis H37Ra ATCC 25177 dormant stage by XTT dye based two-fold dilution method; assay type: functional

## Cc1nc(-c2ccccc2)oc1-c1csc(-c2ccccc2)n1
Bacillus subtilis [1]
  inhibition of growth at 10 µg/mL: 93.2%
[2]
  selectivity ratio: 4
Pseudomonas fluorescens [3]
  inhibition of growth at 30 µg/mL: 97.7%
[4]
  inhibition of growth at 30 µg/mL: 92%
Staphylococcus aureus [5]
  inhibition of growth at 1 µg/mL: 85.7%
Escherichia coli [6]
  MIC: 7.54 µM
Staphylococcus aureus [7]
  MIC: 39.3 µM
[8]
  GI50: > 250 µg/mL
PANC-1
  GI90: > 250 µg/mL
Escherichia coli [9]
  inhibition of growth at 1 µg/mL: 91.2%
Escherichia coli [10]
  inhibition of growth at 30 µg/mL: 98.2%
Bacillus subtilis [11]
  inhibition of growth at 30 µg/mL: 96.8%
Bacillus subtilis [12]
  inhibition of growth at 1 µg/mL: 91.3%
[13]
  selectivity ratio: 9
[14]
  pIC50: 5.13
  MIC90: 85.9 µM (≈ 27.4 µg/mL)
Pseudomonas fluorescens [15]
  inhibition of growth at 1 µg/mL: 88.9%
[16]
  selectivity ratio: 9
[17]
  selectivity ratio: 5
Staphylococcus aureus [18]
  inhibition of growth at 10 µg/mL: 89.9%
[19]
  inhibition of growth at 10 µg/mL: 71%
[20]
  selectivity ratio: 9
Pseudomonas fluorescens [21]
  MIC: 13.8 µM
Bacillus subtilis [22]
  MIC: 7.91 µM
[23]
  GI50: 123 µg/mL (≈ 387 µM)
HeLa
  GI90: > 250 µg/mL
Staphylococcus aureus [24]
  inhibition of growth at 30 µg/mL: 94.2%
[25]
  inhibition of growth at 10 µg/mL: 63%
[26]
  GI50: > 250 µg/mL
A549
  GI90: > 250 µg/mL
[27]
  inhibition of growth at 3 µg/mL: 56%
[28]
  inhibition of growth at 1 µg/mL: 63%
Escherichia coli [29]
  inhibition of growth at 10 µg/mL: 94.2%
Pseudomonas fluorescens [30]
  inhibition of growth at 10 µg/mL: 93.4%
[31]
  selectivity ratio: 9
[32]
  inhibition of growth at 30 µg/mL: 93%
[33]
  pIC50: 5.06
  MIC90: 87.5 µM (≈ 27.9 µg/mL)

## Cc1nc(-c2ccccc2)oc1-c1csc(Cc2ccc(Cl)cc2)n1
Bacillus subtilis [1]
  inhibition of growth at 10 µg/mL: 85.2%
[2]
  selectivity ratio: 47
Pseudomonas fluorescens [3]
  inhibition of growth at 30 µg/mL: 95%
[4]
  inhibition of growth at 30 µg/mL: 97%
Staphylococcus aureus [5]
  inhibition of growth at 1 µg/mL: 79.1%
Escherichia coli [6]
  MIC: 18.3 µg/mL
Staphylococcus aureus [7]
  MIC: 22.7 µg/mL
[8]
  GI50: > 250 µg/mL
PANC-1
  GI90: > 250 µg/mL
Escherichia coli [9]
  inhibition of growth at 1 µg/mL: 78.7%
Escherichia coli [10]
  inhibition of growth at 30 µg/mL: 97.9%
Bacillus subtilis [11]
  inhibition of growth at 30 µg/mL: 90.4%
Bacillus subtilis [12]
  inhibition of growth at 1 µg/mL: 74.2%
[13]
  selectivity ratio: 95
[14]
  pIC50: 6.49
  MIC90: 5.8 µM (≈ 2.13 µg/mL)
Pseudomonas fluorescens [15]
  inhibition of growth at 1 µg/mL: 81%
[16]
  selectivity ratio: 117
[17]
  selectivity ratio: 58
Staphylococcus aureus [18]
  inhibition of growth at 10 µg/mL: 85.6%
[19]
  inhibition of growth at 10 µg/mL: 93%
[20]
  selectivity ratio: 95
Pseudomonas fluorescens [21]
  MIC: 18 µg/mL
Bacillus subtilis [22]
  MIC: 27.6 µg/mL
[23]
  GI50: 124 µg/mL (≈ 339 µM)
HeLa
  GI90: > 250 µg/mL
Staphylococcus aureus [24]
  inhibition of growth at 30 µg/mL: 92.4%
[25]
  inhibition of growth at 10 µg/mL: 97%
[26]
  GI50: > 250 µg/mL
A549
  GI90: > 250 µg/mL
[27]
  inhibition of growth at 3 µg/mL: 92%
[28]
  inhibition of growth at 1 µg/mL: 96%
Escherichia coli [29]
  inhibition of growth at 10 µg/mL: 84.5%
Pseudomonas fluorescens [30]
  inhibition of growth at 10 µg/mL: 87.3%
[31]
  selectivity ratio: 117
[32]
  inhibition of growth at 30 µg/mL: 98%
[33]
  pIC50: 6.46
  MIC90: 7.19 µM (≈ 2.64 µg/mL)
